Test results reported in PMC4755721 (Chemical research in toxicology, 2015).
“Also recorded” adds a separate entry of the source. Where two headings read alike, the source gives them in different places.

Experiments:
[1] = test system: S. typhimurium NM2009; assay: Genotoxicity assay, induction of umu gene expression; assay type: cell-based, Salmonella typhimurium; conditions: for genotoxic activity (induction of umu gene expression): 0-160 µM, without P450; for cytotoxic activity: at concentrations of 80 and 160 µM, tester strain NM2009
[2] = target: T1, P450 2A13 (Homo sapiens, UniProt Q16696); assay: Spectral binding titration with P450 2A13
T1 sequence (Q16696 1-494): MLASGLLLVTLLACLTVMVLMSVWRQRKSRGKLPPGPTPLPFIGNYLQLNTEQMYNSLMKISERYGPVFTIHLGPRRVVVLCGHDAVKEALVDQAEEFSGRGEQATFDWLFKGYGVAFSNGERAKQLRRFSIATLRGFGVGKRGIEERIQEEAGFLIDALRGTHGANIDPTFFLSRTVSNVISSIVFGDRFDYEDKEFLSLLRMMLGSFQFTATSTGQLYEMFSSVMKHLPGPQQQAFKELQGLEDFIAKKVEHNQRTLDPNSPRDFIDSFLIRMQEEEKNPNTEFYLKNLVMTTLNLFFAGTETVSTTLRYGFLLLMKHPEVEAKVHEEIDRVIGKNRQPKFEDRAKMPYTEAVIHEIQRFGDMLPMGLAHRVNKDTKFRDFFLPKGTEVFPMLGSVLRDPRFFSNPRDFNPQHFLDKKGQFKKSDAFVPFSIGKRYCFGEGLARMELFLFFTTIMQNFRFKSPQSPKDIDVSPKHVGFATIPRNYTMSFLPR

[3] = target: P450 2C9 (Homo sapiens, UniProt P11712); assay: Spectral binding titration with P450 2C9
[4] = target: T2, P450 1B1 (Homo sapiens, UniProt Q16678); assay: Spectral binding titration with P450 1B1
T2 sequence (Q16678 1-543): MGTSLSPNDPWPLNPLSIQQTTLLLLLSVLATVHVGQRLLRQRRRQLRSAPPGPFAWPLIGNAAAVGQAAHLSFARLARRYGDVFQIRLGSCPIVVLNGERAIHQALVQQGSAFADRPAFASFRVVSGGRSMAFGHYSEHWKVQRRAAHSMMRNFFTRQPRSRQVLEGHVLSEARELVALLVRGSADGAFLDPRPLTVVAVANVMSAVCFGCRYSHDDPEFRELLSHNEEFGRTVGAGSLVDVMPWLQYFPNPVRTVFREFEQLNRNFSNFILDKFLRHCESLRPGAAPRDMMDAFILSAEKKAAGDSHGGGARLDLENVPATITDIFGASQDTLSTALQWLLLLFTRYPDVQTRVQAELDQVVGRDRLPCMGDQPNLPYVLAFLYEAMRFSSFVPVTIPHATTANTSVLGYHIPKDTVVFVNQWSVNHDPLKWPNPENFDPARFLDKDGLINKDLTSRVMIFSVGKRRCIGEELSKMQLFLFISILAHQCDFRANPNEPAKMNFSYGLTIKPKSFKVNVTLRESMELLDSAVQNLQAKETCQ

[5] = target: T3, P450 2A6 (Homo sapiens, UniProt P11509); assay: Spectral binding titration with P450 2A6
T3 sequence (P11509 1-494): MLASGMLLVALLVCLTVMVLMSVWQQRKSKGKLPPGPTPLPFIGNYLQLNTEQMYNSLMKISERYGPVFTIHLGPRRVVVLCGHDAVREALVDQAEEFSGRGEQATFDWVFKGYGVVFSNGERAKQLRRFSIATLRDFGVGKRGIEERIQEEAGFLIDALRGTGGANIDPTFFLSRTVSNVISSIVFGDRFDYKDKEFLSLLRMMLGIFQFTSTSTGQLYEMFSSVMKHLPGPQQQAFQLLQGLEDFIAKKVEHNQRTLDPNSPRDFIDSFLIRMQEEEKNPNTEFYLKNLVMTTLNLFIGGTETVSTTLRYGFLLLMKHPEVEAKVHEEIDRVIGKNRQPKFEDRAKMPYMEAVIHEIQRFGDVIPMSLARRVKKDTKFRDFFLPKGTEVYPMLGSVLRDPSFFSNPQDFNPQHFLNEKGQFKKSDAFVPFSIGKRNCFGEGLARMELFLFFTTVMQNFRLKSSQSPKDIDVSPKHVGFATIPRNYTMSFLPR

[6] = target: T4, P450 1A2 (Homo sapiens, UniProt P05177); assay: Spectral binding titration with P450 1A2
T4 sequence (P05177 1-516): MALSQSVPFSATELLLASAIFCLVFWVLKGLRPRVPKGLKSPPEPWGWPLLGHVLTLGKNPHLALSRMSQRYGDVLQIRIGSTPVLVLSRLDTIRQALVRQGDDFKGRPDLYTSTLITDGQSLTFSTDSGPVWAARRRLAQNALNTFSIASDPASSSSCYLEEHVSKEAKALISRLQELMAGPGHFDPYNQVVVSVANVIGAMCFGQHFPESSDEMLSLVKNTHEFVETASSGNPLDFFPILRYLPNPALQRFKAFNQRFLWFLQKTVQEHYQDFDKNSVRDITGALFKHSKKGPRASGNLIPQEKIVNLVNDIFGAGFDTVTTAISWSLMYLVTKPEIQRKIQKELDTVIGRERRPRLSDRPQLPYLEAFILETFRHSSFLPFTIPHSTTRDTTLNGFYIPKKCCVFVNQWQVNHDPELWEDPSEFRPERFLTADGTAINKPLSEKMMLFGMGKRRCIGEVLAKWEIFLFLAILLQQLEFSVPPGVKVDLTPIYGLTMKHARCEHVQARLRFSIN

[7] = target: P450 3A4 (Homo sapiens, UniProt P08684); assay: Spectral binding titration with P450 3A4
[8] = target: T3, P450 2A6; assay: Oxidation by P450 2A6; assay type: in vitro ADME; conditions: 50 µM substrate, reconstituted system, LC-MS
[9] = target: T1, P450 2A13; assay: Oxidation by P450 2A13; assay type: in vitro ADME; conditions: 50 µM substrate, reconstituted system, LC-MS
[10] = test system: S. typhimurium TA120; conditions: photomutagenesis assay; cited from earlier work
[11] = test system: P450 2A13; conditions: cited from earlier work
[12] = test system: Salmonella typhimurium TA1537 and TA1538; conditions: cited from earlier work
[13] = test system: S. typhimurium TM677; conditions: cited from earlier work
[14] = test system: HepG2; conditions: cited from earlier work
[15] = target: T3, P450 2A6; conditions: cited from earlier work
[16] = test system: P450 2A6; conditions: cited from earlier work
[17] = target: T1, P450 2A13; conditions: cited from earlier work
[18] = non-classifiable as to carcinogenicity to humans; cited from earlier work

Sequence of P450 3A4 (P08684 whole entry): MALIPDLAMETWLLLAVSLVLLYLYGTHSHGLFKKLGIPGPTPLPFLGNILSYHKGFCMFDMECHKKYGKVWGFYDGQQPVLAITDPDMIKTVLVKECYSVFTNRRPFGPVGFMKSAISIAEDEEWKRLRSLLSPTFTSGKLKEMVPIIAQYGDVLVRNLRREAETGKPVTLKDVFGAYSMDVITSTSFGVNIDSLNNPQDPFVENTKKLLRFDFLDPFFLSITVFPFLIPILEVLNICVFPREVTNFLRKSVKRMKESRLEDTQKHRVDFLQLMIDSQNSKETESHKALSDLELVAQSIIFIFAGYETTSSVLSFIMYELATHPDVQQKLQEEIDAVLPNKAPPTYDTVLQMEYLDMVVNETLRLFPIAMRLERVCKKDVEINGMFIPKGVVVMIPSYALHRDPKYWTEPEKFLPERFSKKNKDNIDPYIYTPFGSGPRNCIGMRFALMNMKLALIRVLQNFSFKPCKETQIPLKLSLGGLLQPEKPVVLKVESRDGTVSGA
Sequence of P450 2C9 (P11712 whole entry): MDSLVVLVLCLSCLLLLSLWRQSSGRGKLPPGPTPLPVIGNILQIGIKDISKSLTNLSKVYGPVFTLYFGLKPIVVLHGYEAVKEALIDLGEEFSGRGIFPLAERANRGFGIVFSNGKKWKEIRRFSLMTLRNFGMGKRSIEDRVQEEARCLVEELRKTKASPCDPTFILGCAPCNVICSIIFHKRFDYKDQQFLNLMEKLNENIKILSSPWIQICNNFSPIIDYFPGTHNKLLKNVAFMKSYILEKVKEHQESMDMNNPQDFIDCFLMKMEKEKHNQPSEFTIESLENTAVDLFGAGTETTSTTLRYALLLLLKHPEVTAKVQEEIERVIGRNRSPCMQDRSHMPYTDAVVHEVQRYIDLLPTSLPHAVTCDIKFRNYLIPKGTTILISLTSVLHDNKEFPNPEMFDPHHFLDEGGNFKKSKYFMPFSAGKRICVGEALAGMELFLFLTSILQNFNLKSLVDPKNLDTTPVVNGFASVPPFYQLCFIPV

| SMILES | Kd [2] [µM] | binding spectra induced ([2]; P450 2A13) | ΔAmax / Ks ([2]; P450 2A13) | ΔAmax ([2]; P450 2A13, ± SE) | spectral changes [3] | spectral changes [4] | binding spectra induced ([5]; P450 2A6) | spectral changes [6] | Kd [7] [µM] | binding spectra induced ([7]; P450 3A4) | ΔAmax / Ks ([7]; P450 3A4) | ΔAmax ([7]; P450 3A4, ± SE) | genotoxic activity (induction of umu gene expression) [1] | cytotoxic activity [1] | genotoxicity after metabolic activation with P450 2A6 and 2A13 [1] | ΔAmax / Ks ([5]; P450 2A6) | ΔAmax ([5]; P450 2A6, ± SE) | photomutagenicity [10] | also measured |
| --- | --- | --- | --- | --- | --- | --- | --- | --- | --- | --- | --- | --- | --- | --- | --- | --- | --- | --- | --- |
| Oc1ccc2c(cc3ccc4cccc5ccc2c3c45)c1O [benzo[a]pyrene-7,8-diol, reference compound] | – | – | – | – | – | – | – | – | – | – | – | – | – | – | – | – | – | – | umu gene expression after metabolic activation (positive control) ([1]; with P450 1B1, results not shown): induced umu gene expression |
| OC1Cc2cccc3cccc1c23 (centres unmarked) [1-acenaphthenol] | 0.48 ± 0.03 | Type I | 0.13 | 0.061±0.001 | did not show any spectral changes | did not show any spectral changes | very weak or undetectable | did not show any spectral changes | 7.8 ± 2.2 | very weak or undetectable | 0.002 | 0.013 ± 0.001 | Neither these four PAHs induced umu gene expression; also recorded: none of these four chemicals showed any genotoxic activity | 10-20% | negative results | – | – | – | – |
| c1cc2c3c(cccc3c1)C1OC21 (centres unmarked) [1,2-epoxyacenaphthene, 1,2-Epoxyacenaphthene] | 0.16 ± 0.03 | Type I | 0.46 | 0.073 ± 0.002 | did not show any spectral changes | did not show any spectral changes | Type I | did not show any spectral changes | 6.2 ± 0.87 | Type I | 0.007 | 0.041 ± 0.002 | Neither these four PAHs induced umu gene expression; also recorded: none of these four chemicals showed any genotoxic activity | 10-20% | negative results | 0.035 | 0.062 ± 0.002 | – | Ks with P450 2A13 lower than with P450 2A6 ([2]; P450 2A13 vs P450 2A6): ~ 10 fold; further oxidation by P450 2A6 [8]: further oxidized; Kd ([5]; Ks (spectral dissociation constant), P450 2A6, 1 µM P450, pH 7.4, ± SE): 1.78 ± 0.25 µM; further oxidation by P450 2A13 [9]: to a small extent |
| C1=Cc2cccc3cccc1c23 [acenaphthylene] | – | – | 0.081 | – | – | – | – | – | 13 ± 2.7 | – | 0.002 | – | Neither these four PAHs induced umu gene expression; also recorded: none of these four chemicals showed any genotoxic activity | 10-20% | negative results | 0.017 | – | weakly mutagenic | ΔAmax [2]: 0.050±0.004; inhibition of coumarin 7-hydroxylation activity [11]: inhibit; mutagenicity [12]: non-mutagenic; mutagenicity [13]: mutagenic; ΔAmax [5]: 0.076±0.002; cytotoxicity [14]: non-cytotoxic; binding spectra induced [15]: Type I; ΔAmax [7]: 0.030±0.002; inhibition of coumarin 7-hydroxylation activity [16]: inhibit; binding spectra induced [17]: Type I |
| c1cc2c3c(cccc3c1)CC2 [acenaphthene] | – | – | 0.15 | 0.074±0.005 | – | – | – | – | 19 ± 3.5 | – | 0.002 | 0.040±0.003 | Neither these four PAHs induced umu gene expression | 10-20% | negative results | 0.055 | 0.066±0.002 | weakly mutagenic | inhibition of coumarin 7-hydroxylation activity ([11]; P450 2A13): inhibit; mutagenicity ([12]; TA1537 and TA1538): non-mutagenic; cytotoxicity ([14]; human liver tumor cell lines and HepG2 in vitro): non-cytotoxic; binding spectra induced ([15]; P450 2A6): Type I; IARC category [18]: Group 3; genotoxic activity (induction of umu gene expression) ([1]; listed as Acenaphthene): none of these four chemicals showed any genotoxic activity; inhibition of coumarin 7-hydroxylation activity ([16]; P450 2A6): inhibit; binding spectra induced ([17]; P450 2A13): Type I |
